Key:
[1] = biological target: T1, Casein kinase II (Homo sapiens) (UniProt P67870+P68400+P19784); test: Inhibition of CK-II-mediated 60S acidic ribosomal P protein activity at 10 uM; type: functional
[2] = biological target: T1, Casein kinase II (Homo sapiens); test: In vitro inhibitory activity against casein kinase II was determined; type: protein-complex assay

Structure (SMILES) | Activity [1] | ID50 [2] [µM]
C[C@@H]1CC[C@]2(C(=O)O)CC[C@]3(C)C(=CC[C@@H]4[C@]56CC[C@@](O)(OC5)C(C)(C)[C@@H]6CC[C@]43C)C2[C@H]1C (stereo partly specified) | Dose-dependent effect | 
C/C=C(/C)C(=O)O[C@@H]1CC(C)(C)CC2C3=CC[C@@H]4[C@]56CC[C@@](O)(OC5)C(C)(C)[C@@H]6CC[C@@]4(C)[C@]3(C)CC[C@]21C(=O)O (stereo partly specified) | Dose-dependent effect | 
C[C@H]1OC(O[C@H]2C(=O)c3c(O)cc(O)cc3O[C@@H]2c2ccc(O)c(O)c2)[C@H](O)[C@H](O)[C@@H]1O (stereo partly specified) | Dose-dependent effect | 9
C[C@H]1OC(O[C@@H]2C(=O)c3c(O)cc(O)cc3O[C@H]2c2ccc(O)c(O)c2)[C@H](O)[C@H](O)[C@@H]1O (stereo partly specified) | Dose-dependent effect | 7
